17 compounds from ChEMBL document CHEMBL1134761, “A new concept for multidimensional selection of ligand conformations (MultiSelect) and multidimensional scoring (MultiScore) of protein-ligand binding affinities” (J Med Chem, 2001) can be followed below.

The target in assay [1] is 72 kDa type IV collagenase (Homo sapiens, UniProt P08253). Nature of the assay: Inhibitory constant against matrix metalloprotease-2.
The target in assay [2] is T1, Interstitial collagenase (Homo sapiens, UniProt P03956).
T1 sequence (P03956 whole entry): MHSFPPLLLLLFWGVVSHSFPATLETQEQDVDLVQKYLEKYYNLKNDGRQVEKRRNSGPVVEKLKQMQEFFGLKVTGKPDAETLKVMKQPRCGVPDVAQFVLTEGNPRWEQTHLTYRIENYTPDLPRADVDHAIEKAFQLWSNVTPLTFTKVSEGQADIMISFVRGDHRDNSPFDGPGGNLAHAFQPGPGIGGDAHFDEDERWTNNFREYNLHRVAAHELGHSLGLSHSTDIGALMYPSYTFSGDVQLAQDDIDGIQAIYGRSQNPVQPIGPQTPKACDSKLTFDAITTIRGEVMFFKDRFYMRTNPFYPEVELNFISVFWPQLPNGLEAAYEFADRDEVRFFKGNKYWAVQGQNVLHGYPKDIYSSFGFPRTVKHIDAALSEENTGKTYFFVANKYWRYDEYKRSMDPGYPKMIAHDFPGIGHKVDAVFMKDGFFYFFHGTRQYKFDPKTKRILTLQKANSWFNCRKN
Nature of the assay: Inhibitory constant against matrix metalloprotease-1.

Assay [3] concerns the target Stromelysin-1 (Homo sapiens, UniProt P08254). Nature of the assay: Inhibitory constant against matrix metalloprotease-3.

Sequence of 72 kDa type IV collagenase (P08253 whole entry): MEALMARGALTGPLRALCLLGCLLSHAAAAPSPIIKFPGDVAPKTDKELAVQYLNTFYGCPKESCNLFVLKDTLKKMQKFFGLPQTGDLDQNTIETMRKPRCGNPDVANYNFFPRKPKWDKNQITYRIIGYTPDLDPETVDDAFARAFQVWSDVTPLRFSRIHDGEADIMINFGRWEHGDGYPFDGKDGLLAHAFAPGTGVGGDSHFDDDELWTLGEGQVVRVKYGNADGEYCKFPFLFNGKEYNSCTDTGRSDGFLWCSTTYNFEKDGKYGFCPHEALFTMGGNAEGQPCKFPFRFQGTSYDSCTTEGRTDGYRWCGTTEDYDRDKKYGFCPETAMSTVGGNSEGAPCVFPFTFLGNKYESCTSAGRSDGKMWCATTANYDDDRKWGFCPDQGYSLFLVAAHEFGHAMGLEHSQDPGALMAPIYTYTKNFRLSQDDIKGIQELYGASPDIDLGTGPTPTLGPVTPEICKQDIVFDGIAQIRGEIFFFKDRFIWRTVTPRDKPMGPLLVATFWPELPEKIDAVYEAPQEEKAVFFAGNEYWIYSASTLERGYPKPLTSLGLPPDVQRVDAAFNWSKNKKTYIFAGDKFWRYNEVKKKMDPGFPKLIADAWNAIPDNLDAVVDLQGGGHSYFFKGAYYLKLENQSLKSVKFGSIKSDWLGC
Sequence of Stromelysin-1 (P08254 whole entry): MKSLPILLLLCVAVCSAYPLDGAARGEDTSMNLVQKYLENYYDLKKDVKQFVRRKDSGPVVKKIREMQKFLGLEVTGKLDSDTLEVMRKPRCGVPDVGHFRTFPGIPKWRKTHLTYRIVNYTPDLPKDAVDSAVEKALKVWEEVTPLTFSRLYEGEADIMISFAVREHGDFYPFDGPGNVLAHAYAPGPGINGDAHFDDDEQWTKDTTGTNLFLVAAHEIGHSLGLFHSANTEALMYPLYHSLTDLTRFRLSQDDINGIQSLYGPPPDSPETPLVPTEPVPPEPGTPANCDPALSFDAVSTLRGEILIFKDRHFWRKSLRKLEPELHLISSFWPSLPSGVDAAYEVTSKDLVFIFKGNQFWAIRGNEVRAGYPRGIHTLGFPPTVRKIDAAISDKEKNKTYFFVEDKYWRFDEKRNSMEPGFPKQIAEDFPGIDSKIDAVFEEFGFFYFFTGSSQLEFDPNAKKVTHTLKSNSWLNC

Take `O=C(C[C@@H](CCCc1ccc(Cl)cc1)C(=O)N[C@@H](CC1CCCCC1)C(=O)NCCC(=O)NCCNS(=O)(=O)N1CCOCC1)NO`: the Ki (as a rule, the equilibrium dissociation constant of an inhibitor or competing ligand from its target) came to 0.01 nM in assay [1], 302 nM in assay [2] and 1.73 nM in assay [3].
Take `Cc1ccc(CCC[C@H](CC(=O)NO)C(=O)N[C@@H](CC2CCCCC2)C(=O)NCCC(=O)NCCN2CCOCC2)cc1`: the Ki in assay [1] was 0.01 nM; in assay [2], 455 nM; in assay [3], 6.26 nM.
The corresponding values for `O=C(C[C@@H](CCCc1ccccc1)C(=O)N[C@@H](CC1CCCCC1)C(=O)NCCC(=O)NCCc1ccc(S(=O)(=O)O)cc1)NO` are 0.59 nM, 942 nM and 81.5 nM.
Take `O=C(C[C@@H](CCCc1ccc(Cl)cc1)C(=O)N[C@@H](CC1CCCCC1)C(=O)NCCC(=O)NCCC(=O)N1CCOCC1)NO`: the figures for the inhibition constant (Ki) in assay [1], in assay [2] and in assay [3] were 0.02 nM, 319 nM and 1.38 nM, respectively.
For the compound `Cc1ccc(CCC[C@H](CC(=O)NO)C(=O)N[C@@H](CC2CCCCC2)C(=O)NCCC(=O)NCCNS(=O)(=O)N2CCOCC2)cc1`, the inhibition constant (Ki) in assay [1] is 0.03 nM; in assay [2] it was 385 nM; in assay [3], 2.75 nM.
Consider `Cc1ccc(CCC[C@H](CC(=O)O)C(=O)N[C@@H](CC2CCCCC2)C(=O)NCCCCN2CCOCC2)cc1`, for which the inhibition constant (Ki) in assay [2] turned out to be 100000 nM; in assay [3] it was 1600 nM.
On to `COC(=O)CCNC(=O)CCNC(=O)[C@H](CC1CCCCC1)NC(=O)[C@H](CCCc1ccc(Cl)cc1)CC(=O)NO`, for which the figures for the inhibition constant (Ki) in assay [1], in assay [2] and in assay [3] were 0.01 nM, 135 nM and 0.96 nM, respectively.
`COc1ccc(CCC[C@H](CC(=O)O)C(=O)N[C@@H](CC2CCCCC2)C(=O)NCCc2ccc(S(N)(=O)=O)cc2)cc1`: affinity in assay [2] was put at a Ki of 100000 nM.
`NS(=O)(=O)c1ccc(CCNC(=O)CCNC(=O)[C@H](CC2CCCCC2)NC(=O)[C@H](CCCc2ccc(Cl)cc2)CC(=O)NO)cc1`: the Ki in assay [1] was determined as 0.01 nM; in assay [2], 382 nM; in assay [3], 6.35 nM.
Turning to `Cc1ccc(CCC[C@H](CC(=O)NO)C(=O)N[C@@H](CC2CCCCC2)C(=O)NCCC(=O)NCCc2ccc(S(N)(=O)=O)cc2)cc1`, the Ki in assay [1] was 0.02 nM; in assay [2] it was 329 nM; in assay [3], 2.98 nM.
Taken in the same sequence, the figures for `O=C(C[C@@H](CCCc1ccc(Cl)cc1)C(=O)N[C@@H](CC1CCCCC1)C(=O)NCCC(=O)NCCCCN1CCOCC1)NO` were 0.03 nM, 313 nM and 2.39 nM.
Regarding `O=C(O)CCNC(=O)CCNC(=O)[C@H](CC1CCCCC1)NC(=O)[C@H](CCCc1ccc(Cl)cc1)CC(=O)NO`, the inhibition constant Ki is 0.01 nM in assay [1], 193 nM in assay [2] and 0.8 nM in assay [3].
Turning to `Cc1ccc(CCC[C@H](CP(=O)(O)O)C(=O)N[C@@H](CC2CCCCC2)C(=O)NCCc2ccccc2)cc1`, the affinity in assay [2] corresponds to a Ki of 17000 nM.
`Cc1ccc(CCC[C@H](CC(=O)NO)C(=O)N[C@@H](CC2CCCCC2)C(=O)NCCC(=O)NCCCCN(C)C)cc1`: the results for the inhibitory constant (Ki) in assay [1], in assay [2] and in assay [3] were 0.03 nM, 313 nM and 5.87 nM, respectively.
In the case of `CN(C)CCCCNC(=O)CCNC(=O)[C@H](CC1CCCCC1)NC(=O)[C@H](CCCc1ccc(Cl)cc1)CC(=O)NO`, the Ki was determined as 0.05 nM in assay [1], 1050 nM in assay [2] and 22.2 nM in assay [3].
On to `Cc1ccc(CCC[C@H](CC(=O)NO)C(=O)N[C@@H](CC2CCCCC2)C(=O)NCCC(=O)NCCCCN2CCOCC2)cc1`, for which the Ki came out at 0.02 nM in assay [1], 642 nM in assay [2] and 2.61 nM in assay [3].
In the case of `NC(=O)CCCNC(=O)[C@H](CC1CCCCC1)NC(=O)[C@H](CCCc1ccccc1)CC(=O)O`, in assay [3], the inhibition constant (Ki) amounted to 1090 nM.
